The test system of one series is Leishmania donovani. In words: Antileishmanial activity against Leishmania donovani infected in human THP-1 cells assessed as growth inhibition by intramacrophage assay. The format is functional, organism-based.
The nature of series [1]: Selectivity index, ratio of CC50 for cytotoxicity against human THP-1 cells to IC50 for antileishmanial activity against Leishmania donovani infected in human THP-1 cells. Format: toxicity, cell-based. The conditions noted are these: read-out: Ratio CC50/IC50.
Series [2] can be described thus: Cytotoxicity against human THP-1 cells assessed as cell growth inhibition. Format: toxicity, cell-based.

pIC50: −log10 of the molar value.

Regarding `COc1ccc(-c2cnc(NC(=O)C3CCOCC3)n2C)cc1`, the pIC50 in the series on Leishmania donovani was under 4.00. Besides, the selectivity ratio in series [1] is over 1. In addition, the 50% cytotoxic concentration (CC50) in series [2] was over 100 µM.
Taken in the same sequence, the figures for `Cn1c(-c2cccc(F)c2)cnc1NC(=O)c1ccc(F)cc1` were 4.92, 4.8 and 58 µM.
Consider `COc1cccc(-c2cnc(NC(=O)c3ccc(F)cc3)n2C)c1`, for which, in the series on Leishmania donovani, the pIC50 is under 4.00. Also, the selectivity ratio in series [1] was over 1. The half-maximal cytotoxic concentration (CC50) in series [2] was over 100 µM.
With `Cn1c(-c2cccc(Cl)c2)cnc1NC(=O)c1ccc(F)cc1`, the pIC50 with Leishmania donovani was 4.66. For the same compound, the selectivity ratio in series [1] is over 2.3. Moreover, in series [2], the CC50 was over 50 µM.
On to `COc1ccc(-c2cnc(NC(=O)CCc3ccccc3)n2C)cc1`, for which the pIC50 with Leishmania donovani is 4.66. Further, the selectivity ratio in series [1] was over 4.5. In addition, the 50% cytotoxic concentration (CC50) in series [2] is over 100 µM.
The corresponding values for `Cc1ccc(-c2cnc(NC(=O)c3ccc(F)cc3)n2C)cc1` are 4.89, 4.5 and 60 µM.
Regarding `COc1ccc(-c2cnc(NC(=O)c3cccc(OC)c3)n2C)cc1`, the pIC50 in the series on Leishmania donovani was under 4.00. Also, the selectivity ratio in series [1] was over 1. In addition, the CC50 in series [2] was over 100 µM.
As for `COc1ccccc1-c1cnc(NC(=O)c2ccc(F)cc2)n1C`, the pIC50 in the series on Leishmania donovani is under 4.00. The selectivity ratio in series [1] is over 1. Further, the CC50 in series [2] was over 100 µM.
As for `COc1ccc(-c2cnc(NC(=O)c3cccc(O)c3)n2C)cc1`, in the series on Leishmania donovani, the pIC50 is 4.27. Further, in series [1], the selectivity ratio is over 1.9. In addition, the cytotoxic concentration (CC50) in series [2] is over 100 µM.
Turning to `CCCn1c(-c2ccc(OC)cc2)cnc1NC(=O)c1ccc(F)cc1`, the pIC50 with Leishmania donovani is 4.74. In addition, the selectivity ratio in series [1] was over 1. The 50% cytotoxic concentration (CC50) in series [2] was over 100 µM.
The corresponding values for `Cc1ccc(C(=O)Nc2ncc(-c3ccccc3)o2)cc1` are 5.85, 19 and 26 µM.
The corresponding values for `Cn1c(-c2ccc(C#N)cc2)cnc1NC(=O)c1ccc(F)cc1` are under 4.30, over 1 and over 50 µM.
`COc1ccc(-c2cnc(NC(=O)c3ccccn3)n2C)cc1`: the pIC50 in the series with Leishmania donovani is 4.89. Further, the selectivity ratio in series [1] is over 7.7. Further, the 50% cytotoxic concentration (CC50) in series [2] is over 100 µM.
For `Cn1c(-c2cccc(C#N)c2)cnc1NC(=O)c1ccc(F)cc1`, in the series with Leishmania donovani, the negative logarithm of the IC50 (pIC50) was 4.80. For the same compound, in series [1], the selectivity ratio was over 6.3. Further, the CC50 in series [2] was over 100 µM.
Take `Cn1c(-c2ccccc2)cnc1NC(=O)c1ccc(Br)cc1`: the negative logarithm of the IC50 (pIC50) in the series with Leishmania donovani is 4.43. In addition, in series [1], the selectivity ratio was over 2.7. Also, in series [2], the cytotoxic concentration (CC50) was over 100 µM.
The corresponding values for `Cn1c(-c2ccccc2)cnc1NC(=O)c1ccc(Cl)cc1` are 4.92, over 8.3 and over 100 µM.
For the compound `COc1ccc(CN(C)C(=O)NC(=O)c2ccc(F)cc2)cc1`, in the series with Leishmania donovani, the pIC50 was under 4.30. Moreover, the selectivity ratio in series [1] is over 1. Further, the CC50 in series [2] is over 50 µM.
Consider `COc1ccc(-c2cnc(NC(=O)c3cccc(Cl)c3)n2C)cc1`, for which the negative-log IC50 (pIC50) in the series on Leishmania donovani was under 5.00. Also, the selectivity ratio in series [1] was over 2.8. Besides, in series [2], the CC50 was over 28 µM.
As to `O=C(Nc1ncc(-c2ccccc2)o1)c1ccc(Cl)cc1`, in the series on Leishmania donovani, the pIC50 is 6.48. Also, the selectivity ratio in series [1] was 30. Further, the CC50 in series [2] worked out at 10 µM.
Consider `Cn1c(-c2ccccc2Cl)cnc1NC(=O)c1ccc(F)cc1`, for which the pIC50 in the series with Leishmania donovani is 4.82. For the same compound, the selectivity ratio in series [1] is over 3.3. Also, the CC50 in series [2] is over 50 µM.
For `COc1ccc(-c2cnc(NC(=O)c3ccc(O)cc3)n2C)cc1`, the negative logarithm of the IC50 (pIC50) in the series with Leishmania donovani is under 4.00. Moreover, the selectivity ratio in series [1] is over 1. The CC50 in series [2] is over 100 µM.
With `Cn1c(-c2ccc(C#N)cc2)cnc1NC(=O)c1ncc[nH]1`, the pIC50 with Leishmania donovani is 4.85. In addition, the selectivity ratio in series [1] is over 7.1. The cytotoxic concentration (CC50) in series [2] is over 100 µM.
For the compound `COc1ccc(-c2cnc(NC(=O)c3ccc(F)cc3)n2C(C)C)cc1`, the pIC50 in the series on Leishmania donovani was under 4.30. Besides, the selectivity ratio in series [1] was over 1. For the same compound, in series [2], the half-maximal cytotoxic concentration (CC50) was over 50 µM.
On to `Cc1ccccc1-c1cnc(NC(=O)c2ccc(F)cc2)n1C`, for which, in the series with Leishmania donovani, the pIC50 was 5.41. For the same compound, the selectivity ratio in series [1] is over 13. Further, the CC50 in series [2] is over 50 µM.
Regarding `Cn1c(-c2cccc(Br)c2)cnc1NC(=O)c1ccc(F)cc1`, the pIC50 in the series with Leishmania donovani is 5.27. Also, the selectivity ratio in series [1] was over 9.3. Besides, the cytotoxic concentration (CC50) in series [2] was over 50 µM.
Turning to `Cn1c(-c2ccccc2)cnc1NC(=O)c1cccc(Br)c1`, the pIC50 in the series with Leishmania donovani is 5.51. Also, the selectivity ratio in series [1] was over 16. Also, in series [2], the CC50 is over 50 µM.
As for `COc1ccc(-c2cnc(NC(=O)c3cccc([N+](=O)[O-])c3)n2C)cc1`, the pIC50 in the series on Leishmania donovani is under 4.00. Further, the selectivity ratio in series [1] was over 1. Besides, the cytotoxic concentration (CC50) in series [2] is over 100 µM.
As to `Cn1c(-c2ccc(Br)cc2)cnc1NC(=O)c1ccc(F)cc1`, the pIC50 with Leishmania donovani is 5.15. Also, in series [1], the selectivity ratio was determined as 6.5. The cytotoxic concentration (CC50) in series [2] is 46 µM.
In the case of `COc1ccc(-c2cnc(NC(=O)c3ccc(C)cc3)n2C)cc1`, the negative logarithm of the IC50 (pIC50) in the series on Leishmania donovani was 4.54. In addition, in series [1], the selectivity ratio was over 3.4. The CC50 in series [2] was over 100 µM.
The corresponding values for `COc1ccc(-c2cnc(NC(=O)c3ccccc3Br)n2C)cc1` are under 4.00, over 1 and over 100 µM.
Turning to `COc1ccc(CNC(=O)NC(=O)c2ccc(F)cc2)cc1`, the pIC50 in the series on Leishmania donovani is under 4.30. Also, the selectivity ratio in series [1] was over 1. For the same compound, the cytotoxic concentration (CC50) in series [2] is over 50 µM.
For `Cn1c(-c2ccccc2)cnc1NC(=O)c1cc(-c2ccccn2)[nH]n1`, the pIC50 with Leishmania donovani was 6.17. For the same compound, the selectivity ratio in series [1] was over 74. Besides, in series [2], the CC50 was over 50 µM.
The corresponding values for `COc1ccc(-c2cn(C)c(NC(=O)c3ccc(F)cc3)n2)cc1` are under 4.30, over 1 and over 50 µM.
The corresponding values for `COc1ccc(-c2cnc(NC(=O)c3ccccc3Cl)n2C)cc1` are 4.89, over 3.8 and over 50 µM.
Taken in the same sequence, the figures for `Cn1c(-c2ccccc2)cnc1NC(=O)c1cccc(Cl)c1` were 5.07, over 5.9 and over 50 µM.
Consider `Cn1c(-c2ccc([N+](=O)[O-])cc2)cnc1NC(=O)c1ccc(F)cc1`, for which the pIC50 in the series with Leishmania donovani is under 4.30. In addition, the selectivity ratio in series [1] was over 1. Moreover, the 50% cytotoxic concentration (CC50) in series [2] is over 50 µM.
For `COc1ccc(C(=O)Nc2ncc(-c3ccc(OC)cc3)n2C)cc1`, in the series with Leishmania donovani, the negative logarithm of the IC50 (pIC50) was under 4.00. In addition, in series [1], the selectivity ratio is over 1. For the same compound, in series [2], the cytotoxic concentration (CC50) was over 100 µM.
Turning to `COc1ccc(-c2cnc(NC(=O)c3ccc(Cl)cc3)n2C)cc1`, the pIC50 in the series on Leishmania donovani is 5.09. In series [1], the selectivity ratio is over 12. The CC50 in series [2] is over 100 µM.
Take `Cn1c(-c2ccccc2)cnc1NC(=O)c1ccccc1`: the pIC50 in the series with Leishmania donovani is 5.35. Besides, the selectivity ratio in series [1] is over 22. For the same compound, the cytotoxic concentration (CC50) in series [2] is over 100 µM.
In the case of `Cn1c(-c2ccccc2[N+](=O)[O-])cnc1NC(=O)c1ccc(F)cc1`, the pIC50 in the series with Leishmania donovani was 5.01. The selectivity ratio in series [1] amounted to 3.2. Also, the half-maximal cytotoxic concentration (CC50) in series [2] stood at 31 µM.
The corresponding values for `Cn1c(-c2ccccc2)cnc1NC(=O)c1ccccc1Cl` are 5.30, over 10 and over 50 µM.
Turning to `Cn1c(-c2cccc([N+](=O)[O-])c2)cnc1NC(=O)c1ccc(F)cc1`, the pIC50 in the series with Leishmania donovani was under 4.30. The selectivity ratio in series [1] was over 1. In series [2], the cytotoxic concentration (CC50) was over 50 µM.
`Cc1cccc(C(=O)Nc2ncc(-c3ccccc3)n2C)c1`: the pIC50 in the series with Leishmania donovani was 5.46. In addition, the selectivity ratio in series [1] is over 14. Moreover, the CC50 in series [2] is over 50 µM.
For the compound `Cn1cc(-c2ccccc2)nc1NC(=O)c1ccc(F)cc1`, the pIC50 with Leishmania donovani was under 4.30. Further, the selectivity ratio in series [1] was over 1. The half-maximal cytotoxic concentration (CC50) in series [2] is over 50 µM.
Taken in the same sequence, the figures for `COc1ccc(-c2cnc(NC(=O)c3ccccc3OC)n2C)cc1` were 4.48, over 3 and over 100 µM.
The corresponding values for `CCC(=O)Nc1ncc(-c2ccc(OC)cc2)n1C` are under 4.00, over 1 and over 100 µM.
For `COc1ccc(-c2cnc(NC(=O)c3ccc(F)cc3)n2-c2ccccc2)cc1`, the negative logarithm of the IC50 (pIC50) with Leishmania donovani was 5.21. The selectivity ratio in series [1] is over 2.9. Also, the half-maximal cytotoxic concentration (CC50) in series [2] was 8.8 µM.
The corresponding values for `COc1ccc(-c2cccc(NC(=O)c3ccc(F)cc3)n2)cc1` are under 4.00, over 1 and over 100 µM.
`COc1ccc(-c2ccnc(NC(=O)c3ccc(F)cc3)c2)cc1`: the negative-log IC50 (pIC50) in the series on Leishmania donovani is under 4.00. The selectivity ratio in series [1] was over 1. For the same compound, the cytotoxic concentration (CC50) in series [2] is over 100 µM.
On to `Cn1c(-c2ccccc2Br)cnc1NC(=O)c1ccc(F)cc1`, for which the negative logarithm of the IC50 (pIC50) in the series on Leishmania donovani was under 4.00. For the same compound, the selectivity ratio in series [1] was over 1. Besides, the CC50 in series [2] is over 100 µM.
The corresponding values for `COc1ccc(-c2cnc(NC(=O)c3ccccc3[N+](=O)[O-])n2C)cc1` are under 4.30, over 1 and over 50 µM.
Taken in the same sequence, the figures for `Cc1ccc(C(=O)Nc2ncc(-c3ccccc3)n2C)cc1` were 5.62, over 20 and over 50 µM.
Regarding `Cn1c(-c2ccc(Cl)cc2)cnc1NC(=O)c1ccc(F)cc1`, the pIC50 in the series on Leishmania donovani was 5.31. The selectivity ratio in series [1] is 7.6. Moreover, in series [2], the cytotoxic concentration (CC50) came to 37 µM.
Turning to `C[C@@H]1[C@H](O)[C@@H](C)/C=C/C=C/C=C/C=C/C=C/C=C/C=C/[C@H](O[C@@H]2O[C@H](C)[C@@H](O)[C@H](N)[C@@H]2O)C[C@@H]2O[C@](O)(C[C@@H](O)C[C@@H](O)[C@H](O)CC[C@@H](O)C[C@@H](O)CC(=O)O[C@H]1C)C[C@H](O)[C@H]2C(=O)O` [AMPHOTERICIN B], the pIC50 with Leishmania donovani is 6.92. In addition, in series [2], the CC50 is 6 µM.
Take `CCCCCCCCCCCCCCCCOP(=O)([O-])OCC[N+](C)(C)C` [MILTEFOSINE]: in the series on Leishmania donovani, the pIC50 is 6.41. Further, in series [2], the CC50 is over 20 µM.

For orientation: pIC50 means −log10 of the IC50, conventionally taken in molar units. The term CC50 denotes the concentration giving 50% cytotoxicity.

Source of the values: ChEMBL document CHEMBL5113486, “Hit-to-lead optimization of novel phenyl imidazole carboxamides that are active against Leishmania donovani” (Eur J Med Chem, 2022).
